System: HL-60 cells
Experiment: Activated caspase 3 by flow cytometry (PE Active Caspase-3 Apoptosis kit)
Type: cell-based
Conditions: camptothecin 30µM, non treated control 7.4 %
Procedure: HL-60 cells were incubated with the various treatments. […] (It is well known that caspase 3 is the main effector of apoptosis mediated by caspase activation).

In the case of `CC[C@@]1(O)C(=O)OCc2c1cc1n(c2=O)Cc2cc3ccccc3nc2-1` [camptothecin], the “cells positive for activated caspase 3” value is reported as 32.4%.

Reference: patent EP2457572A1, “Use of atomic quantum clusters (aqcs) in the prevention of cell proliferative disorders, viral infections and autoimmune diseases” (Universidade De Santiago De Compostela, priority 2010, dated 2012)
